Key:
[1] = Binding affinity for rat imidazoline I2 receptor from crude P2 membranes; 1-5
[2] = Binding affinity for rat imidazoline I2 receptor from crude P2 membranes; 350-880
[3] = Binding affinity for rat imidazoline I2 receptor from crude P2 membranes
[4] = target: T1, Adrenergic receptor alpha-2 (Rattus norvegicus, UniProt P22086+P19328+P22909); assay: Binding affinity for rat alpha-2 adrenergic receptor from crude P2 membranes
T1 sequence (P22086 whole entry): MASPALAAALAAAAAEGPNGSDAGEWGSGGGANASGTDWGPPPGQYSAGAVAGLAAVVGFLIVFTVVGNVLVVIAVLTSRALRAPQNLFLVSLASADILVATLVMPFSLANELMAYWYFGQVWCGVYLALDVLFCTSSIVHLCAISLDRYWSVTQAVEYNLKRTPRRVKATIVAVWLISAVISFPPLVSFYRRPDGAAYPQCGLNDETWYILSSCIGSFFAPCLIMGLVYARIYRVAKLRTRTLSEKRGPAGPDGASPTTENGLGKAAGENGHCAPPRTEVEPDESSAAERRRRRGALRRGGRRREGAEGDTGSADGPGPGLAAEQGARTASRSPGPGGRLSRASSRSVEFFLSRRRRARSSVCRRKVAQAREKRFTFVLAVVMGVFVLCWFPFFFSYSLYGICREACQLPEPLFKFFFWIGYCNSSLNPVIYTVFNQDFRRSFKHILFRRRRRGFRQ
T1 sequence (P19328 whole entry): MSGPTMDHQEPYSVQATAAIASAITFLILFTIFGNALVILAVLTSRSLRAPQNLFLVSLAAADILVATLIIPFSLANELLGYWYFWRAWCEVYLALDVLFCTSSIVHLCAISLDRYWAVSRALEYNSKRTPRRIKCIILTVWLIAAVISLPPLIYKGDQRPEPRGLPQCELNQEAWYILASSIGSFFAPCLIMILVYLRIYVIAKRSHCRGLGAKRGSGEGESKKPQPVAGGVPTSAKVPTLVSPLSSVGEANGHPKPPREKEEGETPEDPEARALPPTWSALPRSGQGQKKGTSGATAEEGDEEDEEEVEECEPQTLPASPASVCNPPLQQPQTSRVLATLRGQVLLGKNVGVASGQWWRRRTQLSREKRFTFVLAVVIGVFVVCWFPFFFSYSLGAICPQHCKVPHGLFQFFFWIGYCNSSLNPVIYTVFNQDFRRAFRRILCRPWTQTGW
T1 sequence (P22909 whole entry): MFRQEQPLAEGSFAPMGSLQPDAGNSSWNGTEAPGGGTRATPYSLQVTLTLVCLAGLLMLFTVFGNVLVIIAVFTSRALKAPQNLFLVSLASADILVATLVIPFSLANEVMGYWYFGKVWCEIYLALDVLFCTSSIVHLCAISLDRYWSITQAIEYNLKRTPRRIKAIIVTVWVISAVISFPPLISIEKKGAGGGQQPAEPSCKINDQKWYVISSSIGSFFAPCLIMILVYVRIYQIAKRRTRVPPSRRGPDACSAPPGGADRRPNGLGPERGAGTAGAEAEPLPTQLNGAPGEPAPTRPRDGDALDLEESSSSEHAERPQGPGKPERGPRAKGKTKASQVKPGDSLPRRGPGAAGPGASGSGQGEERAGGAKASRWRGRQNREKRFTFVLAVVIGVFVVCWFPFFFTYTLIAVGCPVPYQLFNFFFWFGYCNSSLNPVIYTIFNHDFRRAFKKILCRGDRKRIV

SMILES | Ki [3] [nM] | Ki [4] [nM] | other results
c1ccc(OCC2=NCCN2)cc1 |  |  | Ki [1]: 5 nM
c1ccc2oc(-c3ncc[nH]3)cc2c1 |  |  | Ki [2]: ~880 nM
c1ccc2c(c1)CC(C1=NCCN1)O2 (stereo not drawn) | ~50 |  | 
COc1ccc2c3c([nH]c2c1)CNCC3 |  | 8840 | 
c1ccc2c3c([nH]c2c1)CNCC3 [TRYPTOLINE] | 9.4 | 710 | 
c1ccc(CCC2=NCCN2)cc1 [PHENYZOLINE] |  |  | Ki [1]: 5 nM
C(=C\c1ccccc1)/C1=NCCN1 [TRACIZOLINE] | 2 | 7413 | 
c1ccc2oc(C3=NCCN3)cc2c1 | < 10 | 4000 | 
c1coc(C2=NCCN2)c1 | 2340 |  | 
c1ccc2c3c([nH]c2c1)C1=NCCN1CC3 | 7.3 |  | 
